Columns and labels:
[1] = test system: CCR2 expressing cells (CD11b+Ly6c+Hi) in peripheral blood; test: In vivo depletion assay, flow cytometry of peripheral blood (Example 201); parameters: species or system human CCR2 knock-in mice (C57 background); settings: hCCR2 knock-in mice, IV 0.1 mpk compound + 10 mpk anti-cotinine antibody (SEQ ID NO: 13/14), peripheral blood at 48 hr
Procedure, shortened: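 Mice dosed with compound formulated in saline/DMSO/PBS, with anti-cotinine antibody (rabbit variable region, mouse IgG2a Fc) where required, pre-incubated 30 min at room temperature. Terminal peripheral blood RBC-lysed, Fc-blocked, stained for CD45, CD3, CD11b, Ly6C, human CCR2 and 7AAD; percent depletion of CD11b+Ly6c+Hi cells determined by flow cytometry.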

[2] = target: anti-cotinine antibody (SEQ ID NO: 11/12, rabbit variable region with human IgG1 Fc DE mutation); test: SPR binding of anti-cotinine antibody to ARM compounds, Biacore T200, 37° C. (Example 202); settings: SPR Biacore T200, 37° C., pH 7.4, antibody SEQ ID NO: 11/12 captured on protein A; Kd in molar
Procedure, shortened: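 Antibody captured on a protein A chip; ARM compounds injected at 100 μL/min (200 s association, 2000 s dissociation), 3-fold 5-point series from 200 nM, at 37 °C in HEPES pH 7.4 buffer with 0.005% P20 and 1% DMSO. Double-referenced sensorgrams fit 1:1 for kon, koff, Kd (koff/kon), residence time (1/koff); pKd averaged across runs.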

[3] = target: human alpha1 nicotinic acetylcholine (nACh) receptor (Homo sapiens, UniProt P02708); test: Nicotinic acetylcholine receptor antagonism assay, IONFlux automated patch clamp (Example 203); assay type: cell-based; settings: for IC50: antagonism of ACh-stimulated human alpha1 nAChR current, patch clamp; for Emax at 10 µM: maximum percentage antagonism at maximum concentration tested 10 μM, read-out: Maximum Response
Chain of human alpha1 nicotinic acetylcholine (nACh) receptor (P02708 21-457): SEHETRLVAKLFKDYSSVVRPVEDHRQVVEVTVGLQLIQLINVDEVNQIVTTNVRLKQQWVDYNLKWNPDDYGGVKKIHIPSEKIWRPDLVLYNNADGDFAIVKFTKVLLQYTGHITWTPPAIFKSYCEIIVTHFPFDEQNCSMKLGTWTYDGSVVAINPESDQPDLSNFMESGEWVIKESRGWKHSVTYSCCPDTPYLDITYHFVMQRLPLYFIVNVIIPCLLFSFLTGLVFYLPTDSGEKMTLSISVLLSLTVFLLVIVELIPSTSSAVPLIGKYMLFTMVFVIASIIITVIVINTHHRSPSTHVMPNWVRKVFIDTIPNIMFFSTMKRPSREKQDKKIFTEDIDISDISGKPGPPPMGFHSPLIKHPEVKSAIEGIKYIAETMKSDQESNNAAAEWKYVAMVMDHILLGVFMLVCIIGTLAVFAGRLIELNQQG
Chain of human alpha1 nicotinic acetylcholine (nACh) receptor (P11230 24-501 partner): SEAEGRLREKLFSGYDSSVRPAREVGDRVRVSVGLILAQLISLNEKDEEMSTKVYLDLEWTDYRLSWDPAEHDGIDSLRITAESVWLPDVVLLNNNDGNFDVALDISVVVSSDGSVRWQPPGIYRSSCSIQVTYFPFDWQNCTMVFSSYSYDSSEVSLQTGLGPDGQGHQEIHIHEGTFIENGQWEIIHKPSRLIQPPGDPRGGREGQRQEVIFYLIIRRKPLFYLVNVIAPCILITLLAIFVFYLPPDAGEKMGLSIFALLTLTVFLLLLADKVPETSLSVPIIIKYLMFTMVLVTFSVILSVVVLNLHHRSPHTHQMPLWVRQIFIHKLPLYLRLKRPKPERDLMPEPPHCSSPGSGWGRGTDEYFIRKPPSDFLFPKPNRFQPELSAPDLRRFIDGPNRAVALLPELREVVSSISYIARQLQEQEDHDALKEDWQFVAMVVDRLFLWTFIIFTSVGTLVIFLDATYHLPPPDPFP
Chain of human alpha1 nicotinic acetylcholine (nACh) receptor (Q07001 22-517 partner): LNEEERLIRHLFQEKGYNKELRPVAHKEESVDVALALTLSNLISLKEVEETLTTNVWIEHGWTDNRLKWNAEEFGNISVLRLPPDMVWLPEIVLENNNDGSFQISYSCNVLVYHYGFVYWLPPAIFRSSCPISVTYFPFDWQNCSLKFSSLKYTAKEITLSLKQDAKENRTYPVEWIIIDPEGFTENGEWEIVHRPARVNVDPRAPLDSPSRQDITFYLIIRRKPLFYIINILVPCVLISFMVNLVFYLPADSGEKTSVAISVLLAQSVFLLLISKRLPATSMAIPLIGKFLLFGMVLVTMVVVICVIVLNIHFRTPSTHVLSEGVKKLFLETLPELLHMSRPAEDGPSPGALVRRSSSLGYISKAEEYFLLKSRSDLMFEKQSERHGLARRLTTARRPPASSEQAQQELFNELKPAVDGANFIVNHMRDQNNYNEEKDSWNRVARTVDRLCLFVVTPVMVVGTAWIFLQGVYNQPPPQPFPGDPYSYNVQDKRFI
Procedure, shortened: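 Cells expressing human α1 nAChR were incubated with a compound dose response (top 10 μM or 100 μM), then stimulated with ACh (10 mM), and peak current was read by automated patch clamp. % inhibition was taken against ACh-alone control, corrected for vehicle and run-down, and fit non-linearly for IC50; runs were averaged.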

[4] = test system: endogenous target monocytes in human PBMC; test: PBMC ex vivo monocyte depletion flow cytometry assay (Example 200); assay type: cell-based; settings: with anti-cotinine antibody (SEQ ID NO: 11/12), 18-24 hours, EC50 in molar, read-out: Ex Vivo Depletion Assay pEC50 (converted)
Procedure, shortened: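 Monocyte depletion is reported as pEC50, averaged or given individually across runs, and read by flow cytometry staining CD45, CD14 and CD4 with a viability dye. Compounds, diluted four-fold over 11 points from 1 mM DMSO stocks, were combined with 30 μg/mL Fc-enhanced anti-cotinine antibody and human PBMC, then incubated 18-24 h at 37° C.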

Row | SMILES | % Depletion of CCR2 expressing cells [1] [%] | pKd of Antibody for ARM Compound of Formula (I) [2] | IC50 [3] [µM] | Emax at 10 µM [3] [%] | EC50 [4] [µM]
1 | CC(C)N(C)[C@@H]1CC[C@H](N2CC[C@H](Nc3ncnc4ccc(C(F)(F)F)cc34)C2=O)[C@H](NC(=O)[C@H]2CC[C@H](NC(=O)CCCO[C@H]3CC[C@H](OCCNC(=O)[C@H]4CC(=O)N(C5CC5)[C@@H]4c4cccnc4)CC3)CC2)C1 [Example 13, (2S,3S)-1-cyclopropyl-N-(2-(((1R,4S)-4-(4-(((1R,4R)-4-(((1R,2S,5R)-5-(isopropyl(methyl)amino)-2-((S)-2-oxo-3-((6-(trifluoromethyl)quinazolin-4-yl)amino)pyrrolidin-1-yl)cyclohexyl)carbamoyl)cyclohexyl)amino)-4-oxobutoxy)cyclohexyl)oxy)ethyl)-5-oxo-2-(pyridin-3-yl)pyrrolidine-3-carboxamide] | 96.07 | 10.511 |  |  | 
2 | CC(C)N(C)[C@@H]1CC[C@H](N2CC[C@H](Nc3ncnc4ccc(C(F)(F)F)cc34)C2=O)[C@H](NC(=O)[C@H]2CC[C@@H](NC(=O)CCCC(=O)NCCCC(=O)NCCCNC(=O)[C@H]3CC(=O)N(C)[C@@H]3c3cccnc3)CC2)C1 [Example 56, N^1-((1S,4s)-4-(((1R,2S,5R)-5-(Isopropyl(methyl)amino)-2-((S)-2-oxo-3-((6-(trifluoromethyl)quinazolin-4-yl)amino)pyrrolidin-1-yl)cyclohexyl)carbamoyl)cyclohexyl)-N^5-(4-((3-((2S,3S)-1-methyl-5-oxo-2-(pyridin-3-yl)pyrrolidine-3-carboxamido)propyl)amino)-4-oxobutyl)glutaramide] | 97 | 9.3185 |  |  | 
3 | CC(C)N(C)[C@@H]1CC[C@H](N2CC[C@H](Nc3ncnc4ccc(C(F)(F)F)cc34)C2=O)[C@H](NC(=O)[C@H]2CC[C@@H](C3CCN(C(=O)CCOCCOCCNC(=O)[C@H]4CC(=O)N(C)[C@@H]4c4cccnc4)CC3)CC2)C1 [Example 72, (2S,3S)-N-(2-(2-(3-(4-((1S,4s)-4-(((1R,2S,5R)-5-(isopropyl(methyl)amino)-2-((S)-2-oxo-3-((6-(trifluoromethyl)quinazolin-4-yl)amino)pyrrolidin-1-yl)cyclohexyl)carbamoyl)cyclohexyl)piperidin-1-yl)-3-oxopropoxy)ethoxy)ethyl)-1-methyl-5-oxo-2-(pyridin-3-yl)pyrrolidine-3-carboxamide] |  | 9.8865 | ≥ 10 | 32.7 | 0.00794
4 | CC(C)N(C)[C@@H]1CC[C@H](N2CC[C@H](Nc3ncnc4ccc(C(F)(F)F)cc34)C2=O)[C@H](NC(=O)[C@H]2CC[C@H](C3CCN(C(=O)CCOCCOCCNC(=O)[C@H]4CC(=O)N(C)[C@@H]4c4cccnc4)CC3)CC2)C1 [Example 73, (2S,3S)-N-(2-(2-(3-(4-((1R,4r)-4-(((1R,2S,5R)-5-(Isopropyl(methyl)amino)-2-((S)-2-oxo-3-((6-(trifluoromethyl)quinazolin-4-yl)amino)pyrrolidin-1-yl)cyclohexyl)carbamoyl)cyclohexyl)piperidin-1-yl)-3-oxopropoxy)ethoxy)ethyl)-1-methyl-5-oxo-2-(pyridin-3-yl)pyrrolidine-3-carboxamide] |  | 9.8185 | ≥ 10 | 4.1 | 100
5 | CC(C)N(C)[C@@H]1CC[C@H](N2CC[C@H](Nc3ncnc4ccc(C(F)(F)F)cc34)C2=O)[C@H](NC(=O)COCCOCCNC(=O)CCOCCOCCNC(=O)[C@H]2CC(=O)N(C)[C@@H]2c2cccnc2)C1 [Example 77, (2S,3S)-N-(1-(((1R,2S,5R)-5-(Isopropyl(methyl)amino)-2-((S)-2-oxo-3-((6-(trifluoromethyl)quinazolin-4-yl)amino)pyrrolidin-1-yl)cyclohexyl)amino)-1,10-dioxo-3,6,13,16-tetraoxa-9-azaoctadecan-18-yl)-1-methyl-5-oxo-2-(pyridin-3-yl)pyrrolidine-3-carboxamide] |  | 9.152 | ≥ 10 | 19.6 | 0.00631

— patent US12521393B2, “Cytotoxicity targeting chimeras for CCR2-expressing cells” (GLAXOSMITHKLINE INTELLECTUAL PROPERTY DEVELOPMENT LIMITED, priority 2021, dated 2026)
